From patent US20260242372A1, “NOVEL IMIDAZOPYRIDINE AND PYRAZOLOPYRIDINE SULFONAMIDE DERIVATIVES” (Hoffmann-La Roche Inc., priority 2022, published 2026)

Each compound was assayed against human GPR17 short isoform (Homo sapiens, UniProt Q13304) (assay: GPR17 cAMP assay (hGPR17 cAMP, TR-FRET, antagonist mode)). Conditions: CHO-K1 cells stably expressing human GPR17 short isoform; EC80 of agonist MDL29,951; forskolin 15 μM; 30 min at room temperature.
Type: cell-based
Description: CHO-K1 cells stably expressing vector containing untagged human GPR17 short isoform (Roche) were cultured at 37° C./5% CO2 in DMEM (Dulbecco's Modified Eagle Medium): F-12 (1:1) supplemented with 10% foetal bovine serum and 400 μg/ml Geneticin.
Changes in intracellular cyclic adenosine monophosphate (cAMP) levels were quantified using the Nano-TRF Detection Assay kit (Roche Diagnostics, Cat. No. 05214386001). This assay allows for direct cAMP quantification in a homogeneous solution. CAMP is detected based on time-resolved fluorescence energy transfer (TR-FRET) and competitive binding of ruthenylated cAMP and endogenous cAMP to an anti-cAMP monoclonal antibody labeled with AlexaFluor-700. The Ruthenium complex serves as the FRET donor and transfers energy to AlexaFluor-700. The FRET signal is inversely proportional to the CAMP concentration.
CHO-GPR17S cells were detached with Accutase and resuspended in assay buffer consisting of Hank's Balanced Salt Solution (HBSS), 10 mM HEPES (4-(2-hydroxyethyl) piperazine-1-ethanesulfonic acid solution) and 0.1% bovine serum albumin (pH 7.4). The cells were seeded in black 384-well plates (Corning) at a density of 10′000 cells/20 μl assay buffer until the addition of compounds.
Test antagonist compounds were serially diluted in dimethyl sulfoxide (DMSO) and spotted in 384-well plates. The compounds were then diluted in HBSS buffer supplemented with an EC80 concentration of MDL29,951 (3-(2-Carboxy-4,6-dichloroindol-3-yl) propionic acid) (GPR17 agonist) plus 3-Isobutyl-1-methylxanthine (IBMX) (0.5 mM final concentration) and added to the cells at room temperature. Forskolin (15 μM final concentration) was added 5 minutes after the test compounds and the cells were incubated at room temperature for 30 minutes. The assay was stopped by adding cAMP detection mix (containing detergents for cell lysis) for 90 minutes at room temperature.
Cellular cAMP was measured using a Paradigm reader (Molecular Devices). The raw data was used to calculate the FRET signal based on the assay's P-factor as per cAMP kit instructions. The data was normalized to the maximal activity of a reference antagonist and dose response curves were fitted to the percent activity of the test compounds using a sigmoidal dose response model (Genedata Screener).

Sequence of human GPR17 short isoform (Q13304 29-367): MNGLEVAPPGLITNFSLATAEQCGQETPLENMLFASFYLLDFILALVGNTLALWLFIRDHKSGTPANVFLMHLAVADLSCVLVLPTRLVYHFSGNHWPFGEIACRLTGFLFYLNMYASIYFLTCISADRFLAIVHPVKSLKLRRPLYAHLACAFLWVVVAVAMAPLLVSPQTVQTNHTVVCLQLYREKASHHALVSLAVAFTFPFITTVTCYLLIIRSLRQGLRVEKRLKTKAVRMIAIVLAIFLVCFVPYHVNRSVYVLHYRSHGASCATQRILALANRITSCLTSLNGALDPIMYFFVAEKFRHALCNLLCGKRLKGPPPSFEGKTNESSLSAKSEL

| IC50 | Compound |
| --- | --- |
| 0.042 µM | COc1nc(OCC(F)F)c(F)cc1NS(=O)(=O)c1cnc2c(C#N)c(C3CC3)ccn12 [Example 33, 8-cyano-7-cyclopropyl-N-[6-(2,2-difluoroethoxy)-5-fluoro-2-methoxy-3-pyridyl]imidazo[1,2-a]pyridine-3-sulfonamide] |
| 0.045 µM | N#CCc1cc(F)c(NS(=O)(=O)c2cnc3cc(Br)ccn23)cc1F [Example 34, 7-bromo-N-[4-(cyanomethyl)-2,5-difluoro-phenyl]imidazo[1,2-a]pyridine-3-sulfonamide] |
| 0.046 µM | COc1ccn2c(S(=O)(=O)Nc3nc(OC)c(CC#N)cc3F)cnc2c1 [Example 35, N-[5-(cyanomethyl)-3-fluoro-6-methoxy-2-pyridyl]-7-methoxy-imidazo[1,2-a]pyridine-3-sulfonamide] |
| 0.052 µM | COc1nc(NS(=O)(=O)c2cnc3nc(C4CC4)ccn23)c(F)cc1CC(F)F [Example 36, 7-cyclopropyl-N-[5-(2,2-difluoroethyl)-3-fluoro-6-methoxy-2-pyridyl]imidazo[1,2-a]pyrimidine-3-sulfonamide] |
| 0.056 µM | COc1ccn2c(S(=O)(=O)Nc3cc(F)c(OCC(F)F)nc3OC)cnc2n1 [Example 37, N-[6-(2,2-difluoroethoxy)-5-fluoro-2-methoxy-3-pyridyl]-7-methoxy-imidazo[1,2-a]pyrimidine-3-sulfonamide] |
| 0.057 µM | O=S(=O)(Nc1cc(F)c(OC(F)F)nc1OC(F)F)c1cnc2cc(Cl)ccn12 [Example 38, N-[2,6-bis(difluoromethoxy)-5-fluoro-3-pyridyl]-7-chloro-imidazo[1,2-a]pyridine-3-sulfonamide] |
| 0.064 µM | COc1nc(NS(=O)(=O)c2cnc3cc(Cl)ccn23)c(F)cc1OC(F)F [Example 40, 7-chloro-N-[5-(difluoromethoxy)-3-fluoro-6-methoxy-2-pyridyl]imidazo[1,2-a]pyridine-3-sulfonamide] |
| 0.066 µM | COc1nc(OCC(F)F)c(F)cc1NS(=O)(=O)c1cnc2n1CCC(C(F)(F)F)C2 (stereo not drawn) [Example 41, N-[6-(2,2-difluoroethoxy)-5-fluoro-2-methoxy-3-pyridyl]-7-(trifluoromethyl)-5,6,7,8-tetrahydroimidazo[1,2-a]pyridine-3-sulfonamide] |
| 0.072 µM | COc1nc(OCC(F)F)c(F)cc1NS(=O)(=O)c1cnc2nc(Cl)ccn12 [Example 42, 7-chloro-N-[6-(2,2-difluoroethoxy)-5-fluoro-2-methoxy-3-pyridyl]imidazo[1,2-a]pyrimidine-3-sulfonamide] |
| 0.075 µM | COc1nc(OC(F)F)c(F)cc1NS(=O)(=O)c1cnc2c(C#N)c(C)ccn12 [Example 43, 8-cyano-N-[6-(difluoromethoxy)-5-fluoro-2-methoxy-3-pyridyl]-7-methyl-imidazo[1,2-a]pyridine-3-sulfonamide] |
| 0.076 µM | COc1nc(NS(=O)(=O)c2cnc3cc(Cl)ccn23)c(F)cc1C1CC1 [Example 44, 7-chloro-N-(5-cyclopropyl-3-fluoro-6-methoxy-2-pyridyl)imidazo[1,2-a]pyridine-3-sulfonamide] |
| 0.076 µM | COc1nc(OCC(F)F)c(F)cc1NS(=O)(=O)c1cnc2n1CCC(C)(C)C2 [Example 45, N-[6-(2,2-difluoroethoxy)-5-fluoro-2-methoxy-3-pyridyl]-7,7-dimethyl-6,8-dihydro-5H-imidazo[1,2-a]pyridine-3-sulfonamide] |
| 0.082 µM | COc1nc(NS(=O)(=O)c2cnc3cc(Br)ccn23)nc(OC)c1Br [Example 46, 7-bromo-N-(5-bromo-4,6-dimethoxy-pyrimidin-2-yl)imidazo[1,2-a]pyridine-3-sulfonamide] |
| 0.083 µM | COc1nc(NS(=O)(=O)c2cnc3cc(Br)ccn23)c(F)cc1OCCF [Example 47, 7-bromo-N-[3-fluoro-5-(2-fluoroethoxy)-6-methoxy-2-pyridyl]imidazo[1,2-a]pyridine-3-sulfonamide] |
| 0.085 µM | COc1nc(OCC(F)F)c(F)cc1NS(=O)(=O)c1cnc2nc(C)ccn12 [Example 48, N-[6-(2,2-difluoroethoxy)-5-fluoro-2-methoxy-3-pyridyl]-7-methyl-imidazo[1,2-a]pyrimidine-3-sulfonamide] |
